Legend:
[1] = target: Glutamate receptor ionotropic, NMDA 1 (Rattus norvegicus, UniProt P35439)
[2] = target: 5-hydroxytryptamine receptor 2A (Homo sapiens, UniProt P28223); assay type: functional, cell-based
[3] = target: T1, Alpha-1A adrenergic receptor (Homo sapiens, UniProt P35348)
T1 sequence (P35348 whole entry): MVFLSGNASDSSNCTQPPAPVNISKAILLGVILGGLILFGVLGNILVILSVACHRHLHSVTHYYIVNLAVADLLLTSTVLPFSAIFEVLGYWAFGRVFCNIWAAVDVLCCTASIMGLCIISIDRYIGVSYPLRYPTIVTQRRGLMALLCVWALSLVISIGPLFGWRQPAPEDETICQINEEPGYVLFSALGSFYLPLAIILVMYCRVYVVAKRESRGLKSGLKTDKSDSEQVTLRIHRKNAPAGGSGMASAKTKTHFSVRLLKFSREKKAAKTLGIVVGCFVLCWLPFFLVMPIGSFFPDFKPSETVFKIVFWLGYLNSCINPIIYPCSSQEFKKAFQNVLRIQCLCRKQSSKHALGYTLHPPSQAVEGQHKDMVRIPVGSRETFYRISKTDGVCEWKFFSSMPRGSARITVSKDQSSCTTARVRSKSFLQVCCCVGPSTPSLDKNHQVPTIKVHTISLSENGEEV

[4] = target: Sodium-dependent serotonin transporter (Homo sapiens, UniProt P31645)
[5] = target: T2, 5-hydroxytryptamine receptor 1A (Homo sapiens, UniProt P08908); assay type: functional, cell-based
T2 sequence (P08908 whole entry): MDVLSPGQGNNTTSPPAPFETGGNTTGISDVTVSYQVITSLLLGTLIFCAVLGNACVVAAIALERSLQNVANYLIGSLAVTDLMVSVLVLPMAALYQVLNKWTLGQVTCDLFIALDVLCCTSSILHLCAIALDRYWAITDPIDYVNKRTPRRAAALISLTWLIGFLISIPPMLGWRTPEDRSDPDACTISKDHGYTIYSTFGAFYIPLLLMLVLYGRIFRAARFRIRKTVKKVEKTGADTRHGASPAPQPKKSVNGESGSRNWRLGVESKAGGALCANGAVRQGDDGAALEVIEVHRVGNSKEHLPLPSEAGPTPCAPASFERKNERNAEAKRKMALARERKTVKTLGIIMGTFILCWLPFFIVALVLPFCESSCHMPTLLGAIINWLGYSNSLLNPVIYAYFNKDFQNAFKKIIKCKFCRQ

[6] = target: cGMP-inhibited 3',5'-cyclic phosphodiesterase 3A (Homo sapiens, UniProt Q14432); assay type: functional
[7] = target: T1, Alpha-1A adrenergic receptor; assay type: functional, cell-based
Progesterone receptor = target: T3, Progesterone receptor (Homo sapiens, UniProt P06401)
T3 sequence (P06401 whole entry): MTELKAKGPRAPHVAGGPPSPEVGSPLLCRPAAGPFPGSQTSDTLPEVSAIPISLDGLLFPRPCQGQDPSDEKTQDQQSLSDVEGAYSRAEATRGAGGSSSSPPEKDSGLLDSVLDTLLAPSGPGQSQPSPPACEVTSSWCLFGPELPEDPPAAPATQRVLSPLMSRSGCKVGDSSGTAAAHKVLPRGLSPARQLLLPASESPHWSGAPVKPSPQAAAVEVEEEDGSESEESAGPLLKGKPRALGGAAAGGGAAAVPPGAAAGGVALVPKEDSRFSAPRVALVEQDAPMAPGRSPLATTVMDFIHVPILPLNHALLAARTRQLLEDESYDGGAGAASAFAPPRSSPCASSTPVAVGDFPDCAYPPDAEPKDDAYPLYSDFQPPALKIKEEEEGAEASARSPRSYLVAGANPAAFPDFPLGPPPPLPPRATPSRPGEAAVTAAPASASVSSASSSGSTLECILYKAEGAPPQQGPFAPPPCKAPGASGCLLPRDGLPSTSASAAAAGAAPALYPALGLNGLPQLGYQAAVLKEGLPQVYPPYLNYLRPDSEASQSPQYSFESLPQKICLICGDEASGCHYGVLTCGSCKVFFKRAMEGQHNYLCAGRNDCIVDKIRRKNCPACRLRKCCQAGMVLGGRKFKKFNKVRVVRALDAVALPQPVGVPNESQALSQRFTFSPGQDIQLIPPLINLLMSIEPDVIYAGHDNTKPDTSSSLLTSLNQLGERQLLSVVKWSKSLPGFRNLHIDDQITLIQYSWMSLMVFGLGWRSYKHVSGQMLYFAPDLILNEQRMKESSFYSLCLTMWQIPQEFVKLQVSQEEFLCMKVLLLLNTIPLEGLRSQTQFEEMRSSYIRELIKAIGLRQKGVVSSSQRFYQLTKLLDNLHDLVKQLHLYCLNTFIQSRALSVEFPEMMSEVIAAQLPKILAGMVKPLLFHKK

Adenosine receptor A3 = target: T4, Adenosine receptor A3 (Homo sapiens, UniProt P0DMS8)
T4 sequence (P0DMS8 whole entry): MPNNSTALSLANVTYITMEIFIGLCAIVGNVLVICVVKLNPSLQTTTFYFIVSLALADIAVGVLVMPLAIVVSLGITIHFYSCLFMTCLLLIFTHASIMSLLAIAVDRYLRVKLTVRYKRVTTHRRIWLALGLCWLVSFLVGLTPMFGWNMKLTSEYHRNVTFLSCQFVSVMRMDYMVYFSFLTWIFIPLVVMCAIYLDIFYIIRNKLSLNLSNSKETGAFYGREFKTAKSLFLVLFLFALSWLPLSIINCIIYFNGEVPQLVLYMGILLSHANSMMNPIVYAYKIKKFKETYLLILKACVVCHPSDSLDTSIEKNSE
Note: assay procedure not described here.

Sequence of cGMP-inhibited 3',5'-cyclic phosphodiesterase 3A (Q14432 whole entry): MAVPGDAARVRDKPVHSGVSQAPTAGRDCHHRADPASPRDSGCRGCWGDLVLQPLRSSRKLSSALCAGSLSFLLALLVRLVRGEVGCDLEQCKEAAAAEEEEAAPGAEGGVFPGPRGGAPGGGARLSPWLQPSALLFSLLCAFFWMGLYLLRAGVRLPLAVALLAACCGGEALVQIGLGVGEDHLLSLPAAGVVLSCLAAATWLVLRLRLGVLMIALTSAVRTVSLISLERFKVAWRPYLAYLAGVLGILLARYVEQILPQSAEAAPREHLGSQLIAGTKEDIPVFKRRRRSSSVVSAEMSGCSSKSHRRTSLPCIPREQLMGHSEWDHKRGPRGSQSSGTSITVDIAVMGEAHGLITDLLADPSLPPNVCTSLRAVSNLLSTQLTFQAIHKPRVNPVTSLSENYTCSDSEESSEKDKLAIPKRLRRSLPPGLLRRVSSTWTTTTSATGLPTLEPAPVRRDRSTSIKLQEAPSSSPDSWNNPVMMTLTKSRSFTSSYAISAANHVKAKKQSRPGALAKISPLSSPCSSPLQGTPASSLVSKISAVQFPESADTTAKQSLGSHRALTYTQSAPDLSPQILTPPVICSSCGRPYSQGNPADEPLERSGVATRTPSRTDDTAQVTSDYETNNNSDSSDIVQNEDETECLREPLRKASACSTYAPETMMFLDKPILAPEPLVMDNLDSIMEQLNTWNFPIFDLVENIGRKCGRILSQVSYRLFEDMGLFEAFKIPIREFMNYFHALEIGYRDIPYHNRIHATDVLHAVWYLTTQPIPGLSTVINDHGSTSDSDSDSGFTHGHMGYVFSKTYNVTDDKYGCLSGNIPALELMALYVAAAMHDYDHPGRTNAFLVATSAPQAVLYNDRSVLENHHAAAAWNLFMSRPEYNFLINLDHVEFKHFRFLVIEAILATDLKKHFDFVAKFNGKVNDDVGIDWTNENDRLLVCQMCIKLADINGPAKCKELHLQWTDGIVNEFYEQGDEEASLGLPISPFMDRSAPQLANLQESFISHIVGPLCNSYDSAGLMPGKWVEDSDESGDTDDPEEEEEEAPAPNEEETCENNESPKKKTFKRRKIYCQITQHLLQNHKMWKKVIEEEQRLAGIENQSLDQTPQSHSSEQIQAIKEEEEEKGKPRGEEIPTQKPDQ
Sequence of Sodium-dependent serotonin transporter (P31645 whole entry): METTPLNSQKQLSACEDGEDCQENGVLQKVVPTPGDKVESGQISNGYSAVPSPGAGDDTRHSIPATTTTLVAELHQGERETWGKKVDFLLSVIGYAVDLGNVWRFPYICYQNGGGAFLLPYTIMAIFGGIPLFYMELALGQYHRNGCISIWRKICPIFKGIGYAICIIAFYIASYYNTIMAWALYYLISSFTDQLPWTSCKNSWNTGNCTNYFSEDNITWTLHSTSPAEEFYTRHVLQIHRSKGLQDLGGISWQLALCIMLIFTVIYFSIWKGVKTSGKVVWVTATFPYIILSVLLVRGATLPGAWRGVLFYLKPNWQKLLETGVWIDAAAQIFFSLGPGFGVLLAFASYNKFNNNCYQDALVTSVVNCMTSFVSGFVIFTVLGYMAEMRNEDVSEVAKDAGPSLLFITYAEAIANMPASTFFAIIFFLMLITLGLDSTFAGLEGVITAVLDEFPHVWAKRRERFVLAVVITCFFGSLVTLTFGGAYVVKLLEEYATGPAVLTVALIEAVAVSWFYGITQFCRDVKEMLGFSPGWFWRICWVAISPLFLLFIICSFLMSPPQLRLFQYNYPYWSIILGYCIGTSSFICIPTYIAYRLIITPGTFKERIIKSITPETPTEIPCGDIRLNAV
Sequence of 5-hydroxytryptamine receptor 2A (P28223 whole entry): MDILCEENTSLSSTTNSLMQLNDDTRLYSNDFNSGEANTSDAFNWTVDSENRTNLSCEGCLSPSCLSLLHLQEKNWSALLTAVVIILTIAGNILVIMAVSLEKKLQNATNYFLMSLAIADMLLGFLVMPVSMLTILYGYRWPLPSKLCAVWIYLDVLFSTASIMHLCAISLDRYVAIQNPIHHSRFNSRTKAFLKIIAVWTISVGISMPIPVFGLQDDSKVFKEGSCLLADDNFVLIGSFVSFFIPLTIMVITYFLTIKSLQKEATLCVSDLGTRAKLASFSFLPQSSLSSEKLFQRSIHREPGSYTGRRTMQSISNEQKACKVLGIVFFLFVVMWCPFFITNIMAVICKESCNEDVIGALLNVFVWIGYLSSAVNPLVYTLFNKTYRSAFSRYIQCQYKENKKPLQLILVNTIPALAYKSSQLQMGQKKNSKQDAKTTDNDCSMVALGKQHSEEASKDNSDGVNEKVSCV

| SMILES | AC50 [1] [µM] | AC50 [2] [µM] | AC50 [3] [µM] | AC50 [4] [µM] | AC50 [5] [µM] | AC50 [6] [µM] | AC50 [7] [µM] | AC50 (Progesterone receptor) [µM] | AC50 (Adenosine receptor A3) [µM] |
| --- | --- | --- | --- | --- | --- | --- | --- | --- | --- |
| COc1ccccc1OCC(O)CN1CCN(CC(=O)Nc2c(C)cccc2C)CC1 (stereo not given) [RANOLAZINE] | > 30 | > 30 | 13 | > 30 | – | – | – | – | – |
| NS(=O)(=O)Cc1noc2ccccc12 [ZONISAMIDE] | > 10 | > 10 | > 10 | > 10 | > 10 | – | – | – | – |
| CN1C(C(=O)Nc2ccccn2)=C(O)c2sc(Cl)cc2S1(=O)=O [LORNOXICAM] | > 10 | > 30 | > 10 | > 30 | > 10 | – | – | – | – |
| Cc1c(C(=O)NN2CCCCC2)nn(-c2ccc(Cl)cc2Cl)c1-c1ccc(Cl)cc1 [RIMONABANT] | > 10 | 3.7 | > 10 | > 30 | > 30 | – | – | – | – |
| Cn1nnc2c(C(N)=O)ncn2c1=O [TEMOZOLOMIDE] | > 10 | > 30 | > 10 | > 30 | > 30 | – | – | – | – |
| CNC(=O)c1ccccc1Sc1ccc2c(/C=C/c3ccccn3)n[nH]c2c1 [AXITINIB] | – | > 30 | > 10 | > 30 | > 30 | – | – | – | – |
| CC1(C)NC(=O)N(c2ccc([N+](=O)[O-])c(C(F)(F)F)c2)C1=O [NILUTAMIDE] | > 30 | > 30 | > 30 | > 30 | > 30 | > 30 | > 30 | 12.7 | – |
| CN1C(=O)CCS(=O)(=O)C1c1ccc(Cl)cc1 (stereo not given) [CHLORMEZANONE] | > 10 | > 10 | > 30 | > 10 | > 10 | – | – | – | – |
| Nc1ccn([C@H]2CC[C@@H](CO)O2)c(=O)n1 [ZALCITABINE] | > 10 | > 10 | > 10 | > 10 | > 10 | – | – | – | – |
| NCC(CC(=O)O)c1ccc(Cl)cc1 (stereo not given) [BACLOFEN] | > 10 | – | > 10 | – | > 30 | > 30 | > 30 | > 30 | > 30 |
| CO[C@H]1C[C@@H]2CC[C@@H](C)[C@@](O)(O2)C(=O)C(=O)N2CCCC[C@H]2C(=O)O[C@H]([C@H](C)C[C@@H]2CC[C@@H](O)[C@H](OC)C2)CC(=O)[C@H](C)/C=C(\C)[C@@H](O)[C@@H](OC)C(=O)[C@H](C)C[C@H](C)/C=C/C=C/C=C/1C [SIROLIMUS] | > 10 | – | 0.156 | – | > 10 | > 30 | > 30 | > 30 | 26.4 |
